Assay results as given in patent US8710065B2, “Tricyclic inhibitors of kinases” (AbbVie Inc., priority 2011, dated 2014).

Target: T1, GST-tagged-Wee1 kinase (Homo sapiens, UniProt P30291)
T1 construct: purchased Carnabio (Carna Biosciences) 05-177
Test: Wee1 time-resolved fluorescence equilibrium binding assay (displacement of Oregon Green-labeled ATP-competitive kinase probe)
Details: read-out: Wee-1 inhibition (Ki)
Description: Wee1 kinase was assayed using a time-resolved fluorescence equilibrium binding assay monitoring displacement of a rapidly reversible Oregon Green-labeled ATP-competitive kinase probe (N-(2-(2-(2-(4-(4-(5-chloro-4-(2-(1-hydroxycyclobutyl)thiazol-5-yl)-1H-pyrrolo[2,3-b]pyridin-2-yl)phenyl)piperazin-1-yl)ethoxy)ethoxy)ethyl)-2′,7′-difluoro-3′,6′-dihydroxy-3-oxo-3H-spiro[isobenzofuran-1,9′-xanthene]-5-carboxamide) by competitive Wee1 inhibitors.
Table 1 depicts enzyme inhibition data (Ki) for exemplary compounds.

T1 sequence (P30291 whole entry): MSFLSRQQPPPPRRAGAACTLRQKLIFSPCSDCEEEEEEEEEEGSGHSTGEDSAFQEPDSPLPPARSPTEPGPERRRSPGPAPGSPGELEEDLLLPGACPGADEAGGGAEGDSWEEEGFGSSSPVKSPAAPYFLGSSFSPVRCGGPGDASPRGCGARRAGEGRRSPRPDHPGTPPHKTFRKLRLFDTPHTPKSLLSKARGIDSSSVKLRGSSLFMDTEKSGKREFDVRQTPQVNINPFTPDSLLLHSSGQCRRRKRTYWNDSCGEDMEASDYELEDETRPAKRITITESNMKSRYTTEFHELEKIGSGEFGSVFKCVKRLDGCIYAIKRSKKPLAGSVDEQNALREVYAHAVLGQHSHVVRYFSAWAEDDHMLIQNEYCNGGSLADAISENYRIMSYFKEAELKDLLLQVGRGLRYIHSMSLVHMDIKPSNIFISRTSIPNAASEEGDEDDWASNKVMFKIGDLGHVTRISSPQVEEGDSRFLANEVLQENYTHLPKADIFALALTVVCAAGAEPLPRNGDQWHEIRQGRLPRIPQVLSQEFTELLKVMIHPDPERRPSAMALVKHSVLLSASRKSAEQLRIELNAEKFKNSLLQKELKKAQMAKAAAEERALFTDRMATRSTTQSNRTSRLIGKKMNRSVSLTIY

| Structure (SMILES) | Ki [nM] |
| --- | --- |
| CC(C)N1CCN(c2ccc(Nc3ncc4c(=O)n(-c5ccccc5Cl)c5nccn5c4n3)cc2F)CC1 [Example 33, 6-(2-chlorophenyl)-2-({3-fluoro-4-[4-(propan-2-yl)piperazin-1-yl]phenyl}amino)imidazo[1,2-a]pyrimido[5,4-e]pyrimidin-5(6H)-one] | < 10 |
| CN1CCc2ccc(Nc3ncc4c(=O)n(-c5ccccc5Cl)c5nccn5c4n3)cc2C1 [Example 34, 6-(2-chlorophenyl)-2-[(2-methyl-1,2,3,4-tetrahydroisoquinolin-7-yl)amino]imidazo[1,2-a]pyrimido[5,4-e]pyrimidin-5(6H)-one] | < 10 |
| CN(C)CCOc1ccc(Nc2ncc3c(=O)n(-c4ccccc4Cl)c4nccn4c3n2)cc1 [Example 35, 6-(2-chlorophenyl)-2-({4-[2-(dimethylamino)ethoxy]phenyl}amino)imidazo[1,2-a]pyrimido[5,4-e]pyrimidin-5(6H)-one] | < 10 |
| O=c1c2cnc(Nc3ccc(OCCN4CCOCC4)cc3)nc2n2ccnc2n1-c1ccccc1Cl [Example 36, 6-(2-chlorophenyl)-2-({4-[2-(morpholin-4-yl)ethoxy]phenyl}amino)imidazo[1,2-a]pyrimido[5,4-e]pyrimidin-5(6H)-one] | 10 to 100 |
| Cc1cc(Nc2ncc3c(=O)n(-c4ccccc4Cl)c4nccn4c3n2)ccc1N1CCCN(C)CC1 [Example 37, 6-(2-chlorophenyl)-2-{[3-methyl-4-(4-methyl-1,4-diazepan-1-yl)phenyl]amino}imidazo[1,2-a]pyrimido[5,4-e]pyrimidin-5(6H)-one] | < 10 |
| CN1CCC(c2ccc(Nc3ncc4c(=O)n(-c5ccccc5Cl)c5nccn5c4n3)cc2)CC1 [Example 38, 6-(2-chlorophenyl)-2-{[4-(1-methylpiperidin-4-yl)phenyl]amino}imidazo[1,2-a]pyrimido[5,4-e]pyrimidin-5(6H)-one] | < 10 |
| CN1CCN(c2ccc(Nc3ncc4c(=O)n(-c5ccccc5)c5nccn5c4n3)cc2)CC1 [Example 39, 2-{[4-(4-methylpiperazin-1-yl)phenyl]amino}-6-phenylimidazo[1,2-a]pyrimido[5,4-e]pyrimidin-5(6H)-one] | 10 to 100 |
| Cc1ccc(-n2c(=O)c3cnc(Nc4ccc(N5CCN(C)CC5)cc4)nc3n3ccnc23)c(Cl)c1 [Example 40, 6-(2-chloro-4-methylphenyl)-2-{[4-(4-methylpiperazin-1-yl)phenyl]amino}imidazo[1,2-a]pyrimido[5,4-e]pyrimidin-5(6H)-one] | < 10 |
| O=C(NC1CCCCC1)c1ccc(Nc2ncc3c(=O)n(-c4ccccc4Cl)c4nccn4c3n2)cc1 [Example 41, 4-{[6-(2-chlorophenyl)-5-oxo-5,6-dihydroimidazo[1,2-a]pyrimido[5,4-e]pyrimidin-2-yl]amino}-N-cyclohexylbenzamide] | 10 to 100 |
| CN1CCN(C(=O)c2ccc(Nc3ncc4c(=O)n(-c5ccccc5Cl)c5nccn5c4n3)cc2)CC1 [Example 42, 6-(2-chlorophenyl)-2-({4-[(4-methylpiperazin-1-yl)carbonyl]phenyl}amino)imidazo[1,2-a]pyrimido[5,4-e]pyrimidin-5(6H)-one] | 10 to 100 |
| O=c1c2cnc(Nc3ccc(-c4cn[nH]c4)cc3)nc2n2ccnc2n1-c1ccccc1Cl [Example 43, 6-(2-chlorophenyl)-2-{[4-(1H-pyrazol-4-yl)phenyl]amino}imidazo[1,2-a]pyrimido[5,4-e]pyrimidin-5(6H)-one] | 10 to 100 |
| CCN(CC)CCOc1ccc(Nc2ncc3c(=O)n(-c4ccccc4Cl)c4nccn4c3n2)cc1 [Example 44, 6-(2-chlorophenyl)-2-({4-[2-(diethylamino)ethoxy]phenyl}amino)imidazo[1,2-a]pyrimido[5,4-e]pyrimidin-5(6H)-one] | < 10 |
| O=c1c2cnc(Nc3ccc(-c4cccnc4)cc3)nc2n2ccnc2n1-c1ccccc1Cl [Example 45, 6-(2-chlorophenyl)-2-{[4-(pyridin-3-yl)phenyl]amino}imidazo[1,2-a]pyrimido[5,4-e]pyrimidin-5(6H)-one] | 10 to 100 |
| O=C(N[C@H]1CC[C@H](O)CC1)c1ccc(Nc2ncc3c(=O)n(-c4ccccc4Cl)c4nccn4c3n2)cc1 [Example 46, 4-{[6-(2-chlorophenyl)-5-oxo-5,6-dihydroimidazo[1,2-a]pyrimido[5,4-e]pyrimidin-2-yl]amino}-N-(trans-4-hydroxycyclohexyl)benzamide] | 10 to 100 |
| CCNC(=O)c1ccc(Nc2ncc3c(=O)n(-c4ccccc4Cl)c4nccn4c3n2)cc1 [Example 47, 4-{[6-(2-chlorophenyl)-5-oxo-5,6-dihydroimidazo[1,2-a]pyrimido[5,4-e]pyrimidin-2-yl]amino}-N-ethylbenzamide] | 10 to 100 |
| O=C(c1ccc(Nc2ncc3c(=O)n(-c4ccccc4Cl)c4nccn4c3n2)cc1)N1CCC(O)CC1 [Example 48, 6-(2-chlorophenyl)-2-({4-[(4-hydroxypiperidin-1-yl)carbonyl]phenyl}amino)imidazo[1,2-a]pyrimido[5,4-e]pyrimidin-5(6H)-one] | 10 to 100 |

| Structure (SMILES) | Ki [nM] |
| --- | --- |
| O=C(Nc1ccncc1)c1ccc(Nc2ncc3c(=O)n(-c4ccccc4Cl)c4nccn4c3n2)cc1 [Example 49, 4-{[6-(2-chlorophenyl)-5-oxo-5,6-dihydroimidazo[1,2-a]pyrimido[5,4-e]pyrimidin-2-yl]amino}-N-(pyridin-4-yl)benzamide] | 10 to 100 |
| CCN(CC)CCCOc1ccc(Nc2ncc3c(=O)n(-c4ccccc4Cl)c4nccn4c3n2)cc1F [Example 50, 6-(2-chlorophenyl)-2-({4-[3-(diethylamino)propoxy]-3-fluorophenyl}amino)imidazo[1,2-a]pyrimido[5,4-e]pyrimidin-5(6H)-one] | < 10 |
| CN1CCN(CCOc2ccc(Nc3ncc4c(=O)n(-c5ccccc5Cl)c5nccn5c4n3)cc2F)CC1 [Example 51, 6-(2-chlorophenyl)-2-({3-fluoro-4-[2-(4-methylpiperazin-1-yl)ethoxy]phenyl}amino)imidazo[1,2-a]pyrimido[5,4-e]pyrimidin-5(6H)-one] | < 10 |
| COCCN1CCc2ccc(Nc3ncc4c(=O)n(-c5ccccc5Cl)c5nccn5c4n3)cc2C1 [Example 52, 6-(2-chlorophenyl)-2-{[2-(2-methoxyethyl)-1,2,3,4-tetrahydroisoquinolin-7-yl]amino}imidazo[1,2-a]pyrimido[5,4-e]pyrimidin-5(6H)-one] | < 10 |
| CN1Cc2cc(Nc3ncc4c(=O)n(-c5ccccc5Cl)c5nccn5c4n3)ccc2C(C)(C)C1 [Example 53, 6-(2-chlorophenyl)-2-[(2,4,4-trimethyl-1,2,3,4-tetrahydroisoquinolin-7-yl)amino]imidazo[1,2-a]pyrimido[5,4-e]pyrimidin-5(6H)-one] | < 10 |
| Cc1c(O)cccc1-n1c(=O)c2cnc(Nc3ccccc3)nc2n2ccnc12 [Example 54, 6-(3-hydroxy-2-methylphenyl)-2-(phenylamino)imidazo[1,2-a]pyrimido[5,4-e]pyrimidin-5(6H)-one] | 10 to 100 |
| CN1CCN(c2ccc(Nc3ncc4c(=O)n(-c5c(Cl)cccc5Cl)c5nccn5c4n3)cc2)CC1 [Example 55, 6-(2,6-dichlorophenyl)-2-{[4-(4-methylpiperazin-1-yl)phenyl]amino}imidazo[1,2-a]pyrimido[5,4-e]pyrimidin-5(6H)-one] | < 10 |
| Nc1ccc(Nc2ncc3c(=O)n(-c4ccccc4Cl)c4nccn4c3n2)cc1 [Example 56, 2-[(4-aminophenyl)amino]-6-(2-chlorophenyl)imidazo[1,2-a]pyrimido[5,4-e]pyrimidin-5(6H)-one] | 10 to 100 |
| CC(=O)Nc1ccc(Nc2ncc3c(=O)n(-c4ccccc4Cl)c4nccn4c3n2)cc1 [Example 57, N-(4-{[6-(2-chlorophenyl)-5-oxo-5,6-dihydroimidazo[1,2-a]pyrimido[5,4-e]pyrimidin-2-yl]amino}phenyl)acetamide] | 10 to 100 |
| O=C(Nc1ccc(Nc2ncc3c(=O)n(-c4ccccc4Cl)c4nccn4c3n2)cc1)C1CCCC1 [Example 58, N-(4-{[6-(2-chlorophenyl)-5-oxo-5,6-dihydroimidazo[1,2-a]pyrimido[5,4-e]pyrimidin-2-yl]amino}phenyl)cyclopentanecarboxamide] | 10 to 100 |
| O=C(Nc1ccc(Nc2ncc3c(=O)n(-c4ccccc4Cl)c4nccn4c3n2)cc1)C1CCC(O)CC1 (stereo not shown) [Example 59, N-(4-{[6-(2-chlorophenyl)-5-oxo-5,6-dihydroimidazo[1,2-a]pyrimido[5,4-e]pyrimidin-2-yl]amino}phenyl)-4-hydroxycyclohexanecarboxamide] | 10 to 100 |
| CN1CCC(C(=O)Nc2ccc(Nc3ncc4c(=O)n(-c5ccccc5Cl)c5nccn5c4n3)cc2)CC1 [Example 60, N-(4-{[6-(2-chlorophenyl)-5-oxo-5,6-dihydroimidazo[1,2-a]pyrimido[5,4-e]pyrimidin-2-yl]amino}phenyl)-1-methylpiperidine-4-carboxamide] | < 10 |
| O=C(Nc1ccc(Nc2ncc3c(=O)n(-c4ccccc4Cl)c4nccn4c3n2)cc1)c1ccncc1 [Example 61, N-(4-{[6-(2-chlorophenyl)-5-oxo-5,6-dihydroimidazo[1,2-a]pyrimido[5,4-e]pyrimidin-2-yl]amino}phenyl)pyridine-4-carboxamide] | < 10 |
| Cc1cccc(C)c1-n1c(=O)c2cnc(Nc3ccc4c(c3)CN(C)CC43CC3)nc2n2ccnc12 [Example 62, 6-(2,6-dimethylphenyl)-2-[(2′-methyl-2′,3′-dihydro-1′H-spiro[cyclopropane-1,4′-isoquinolin]-7′-yl)amino]imidazo[1,2-a]pyrimido[5,4-e]pyrimidin-5(6H)-one] | < 10 |
| O=c1c2cnc(Nc3ccc(N4CCN(Cc5cccc(Cl)c5)CC4)cc3)nc2n2ccnc2n1-c1ccccc1Cl [Example 63, 2-({4-[4-(3-chlorobenzyl)piperazin-1-yl]phenyl}amino)-6-(2-chlorophenyl)imidazo[1,2-a]pyrimido[5,4-e]pyrimidin-5(6H)-one] | 10 to 100 |
